In brackets after ≈: the same amount, converted by molar mass.

Experimental findings from US10471046B2, “Method for treating, preventing, or reducing the risk of skin infection” (Melinta Subsidiary Corp., priority 2014, dated 2019) are described below.

For the experiment, the system named is S. aureus. Kind of experiment: Minimum inhibitory concentrations (MICs) for S. aureus of exemplary compounds (Table 2). The format is cell-based. The note with it: Staphylococcus aureus, minimum inhibitory concentrations for S. aureus; read-out: MICs. Summed up:
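Growth of S. aureus in media with or without compound, by broth microdilution in microtiter trays following NCCLS M7-A5 guidelines. Values are MICs in μg/mL.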

For the compound `CC(=O)NC[C@H]1CN(c2ccc(-c3ccc(Cn4cnc5c(NCCF)ncnc54)cc3)c(F)c2)C(=O)O1` [Compound 1102, N-(3-{2-Fluoro-4′-[6-(2-fluoro-ethylamino)-purin-9-ylmethyl]-biphenyl-4-yl}-2-oxo-oxazolidin-5-(S)-ylmethyl)-acetamide], the MIC was 1 µg/mL (≈ 1.92 µM). For the compound `CC(=O)NC[C@H]1CN(c2ccc(-c3ccc(Cn4cnc5c(NCC(F)F)ncnc54)cc3)c(F)c2)C(=O)O1` [Compound 1103, N-(3-{4′-[6-(2,2-Difluoro-ethylamino)-purin-9-ylmethyl]-2-fluoro-biphenyl-4-yl}-2-oxo-oxazolidin-5-(S)-ylmethyl)-acetamide], the MIC was determined as 1 µg/mL (≈ 1.85 µM).

In the case of `CC(=O)NC[C@H]1CN(c2ccc(-c3ccc(Cn4cnc5c(NCC(F)(F)F)ncnc54)cc3)c(F)c2)C(=O)O1` [Compound 1104, N-(3-{2-Fluoro-4′-[6-(2,2,2-trifluoro-ethylamino)-purin-9-ylmethyl]-biphenyl-4-yl}-2-oxo-oxazolidin-5-(S)-ylmethyl)-acetamide], the MIC amounted to 1 µg/mL (≈ 1.79 µM). Take `CC(=O)NC[C@H]1CN(c2ccc(-c3ccc(Cn4cnc5c(N(C)C)ncnc54)cc3)c(F)c2)C(=O)O1` [Compound 1105, N-{3-[4′-(6-Dimethylamino-purin-9-ylmethyl)-2-fluoro-biphenyl-4-yl]-2-oxo-oxazolidin-5-(S)-ylmethyl}-acetamide]: the MIC is 1 µg/mL (≈ 1.99 µM). Consider `CNc1ncnc2c1ncn2Cc1ccc(-c2ccc(N3C[C@H](CNC(C)=O)OC3=O)cc2F)cc1` [Compound 1106, N-{3-[2-Fluoro-4′-(6-methylamino-purin-9-ylmethyl)-biphenyl-4-yl]-2-oxo-oxazolidin-5-(S)-ylmethyl}-acetamide], for which the MIC was found to be 1 µg/mL (≈ 2.04 µM). Turning to `CC(=O)NC[C@H]1CN(c2ccc(-c3ccc(Cn4cnc5c(NCCCO)ncnc54)cc3)c(F)c2)C(=O)O1` [Compound 1107, N-(3-{2-Fluoro-4′-[6-(3-hydroxy-propylamino)-purin-9-ylmethyl]-biphenyl-4-yl}-2-oxo-oxazolidin-5-(S)-ylmethyl)-acetamide], the MIC turned out to be 2 µg/mL (≈ 3.75 µM).

Consider `CSCCNc1ncnc2c1ncn2Cc1ccc(-c2ccc(N3C[C@H](CNC(C)=O)OC3=O)cc2F)cc1` [Compound 1108], for which the MIC worked out at 2 µg/mL (≈ 3.64 µM). Take `CC(=O)NC[C@H]1CN(c2ccc(-c3ccc(Cn4cnc5c(NCCCCO)ncnc54)cc3)c(F)c2)C(=O)O1` [Compound 1109, N-(3-{2-Fluoro-4′-[6-(4-hydroxy-butylamino)-purin-9-ylmethyl]-biphenyl-4-yl}-2-oxo-oxazolidin-5-(S)-ylmethyl)-acetamide]: the MIC is 2 µg/mL (≈ 3.65 µM). As for `CC(=O)NC[C@H]1CN(c2ccc(-c3ccc(Cn4cnc5c(N)ncnc54)cc3)c(F)c2)C(=O)O1` [Compound 1110, N-{3-[4′-(6-Amino-purin-9-ylmethyl)-2-fluoro-biphenyl-4-yl]-2-oxo-oxazolidin-5-(S)-ylmethyl}-acetamide], the MIC amounted to 1 µg/mL (≈ 2.1 µM). For the compound `CC(=O)NC[C@H]1CN(c2ccc(-c3ccc(Cn4cnc5c(=O)[nH]cnc54)cc3)c(F)c2)C(=O)O1` [Compound 1111, N-{3-[2-Fluoro-4′-(6-oxo-1,6-dihydro-purin-9-ylmethyl)-biphenyl-4-yl]-2-oxo-oxazolidin-5-(S)-ylmethyl}-acetamide], the MIC worked out at 2 µg/mL (≈ 4.2 µM).

For `CC(=O)NC[C@H]1CN(c2ccc(-c3ccc(CN4CCCO4)cc3)c(F)c2)C(=O)O1` [Compound 1112, N-[3-(2-Fluoro-4′-isoxazolidin-2-ylmethyl-biphenyl-4-yl)-2-oxo-oxazolidin-5-(S)-ylmethyl]-acetamide], the MIC came to 1 µg/mL (≈ 2.42 µM).

With `CC(=O)NC[C@H]1CN(c2ccc(-c3ccc(Cn4ccnc4N)cc3)c(F)c2)C(=O)O1` [Compound 1113, N-{3-[4′-(2-Amino-imidazol-1-ylmethyl)-2-fluoro-biphenyl-4-yl]-2-oxo-oxazolidin-5-(S)-ylmethyl}-acetamide], the MIC stood at 2 µg/mL (≈ 4.72 µM).

As for `CC(=O)NC[C@H]1CN(c2ccc(-c3ccc(CNc4nc(CN)ns4)cc3)c(F)c2)C(=O)O1` [Compound 2012, N-(3-{4′-[(3-Aminomethyl-[1,2,4]thiadiazol-5-ylamino)-methyl]-2-fluoro-biphenyl-4-yl}-2-oxo-oxazolidin-5-(S)-ylmethyl)-acetamide], the MIC was 1 µg/mL (≈ 2.13 µM).

Consider `CC(=O)NC[C@H]1CN(c2ccc(-c3ccc(CNc4nc(CNC(=O)[C@H](C)N)ns4)cc3)c(F)c2)C(=O)O1` [Compound 2013, N-[5-({4′[5-(S)-(Acetylamino-methyl)-2-oxo-oxazolidin-3-yl]-2′-fluoro-biphenyl-4-ylmethyl}-amino)-[1,2,4]thiadiazol-3-ylmethyl]-2-(S)-amino-propionamide], for which the MIC was determined as 1 µg/mL (≈ 1.85 µM).

On to `CC(=O)NC[C@H]1CN(c2ccc(-c3ccc(CNc4nc(CNC(=O)[C@@H](N)CCCCN)ns4)cc3)c(F)c2)C(=O)O1` [Compound 2014, 2,6-Diamino-hexanoic acid [5-({4′-[5-(acetylamino-methyl)-2-oxo-oxazolidin-3-yl]-2′-fluoro-biphenyl-4-ylmethyl}-amino)-[1,2,4]thiadiazol-3-ylmethyl]-amide], for which the MIC stood at 2 µg/mL (≈ 3.34 µM). Consider `CC(=O)NC[C@H]1CN(c2ccc(-c3ccc(CSc4nnnn4C)cc3)c(F)c2)C(=O)O1` [Compound 2015, N-{3-[2-Fluoro-4′-(1-methyl-1H-tetrazol-5-ylsulfanylmethyl)-biphenyl-4-yl]-2-oxo-oxazolidin-5-(S)-ylmethyl}-acetamide], for which the MIC came out at 0.25 µg/mL (≈ 0.548 µM). For the compound `CC(=O)NC[C@H]1CN(c2ccc(-c3ccc(CSc4cnn[nH]4)cc3)c(F)c2)C(=O)O1` [Compound 2016, N-{3-[2-Fluoro-4′-(3H-[1,2,3]triazol-4-ylsulfanylmethyl)-biphenyl-4-yl]-2-oxo-oxazolidin-5-(S)-ylmethyl}-acetamide], the MIC is 0.25 µg/mL (≈ 0.566 µM). In the case of `CC(=O)NC[C@H]1CN(c2ccc(-c3ccc(CSc4ccccn4)cc3)c(F)c2)C(=O)O1` [Compound 2018, N-{3-[2-Fluoro-4′-(pyridin-2-ylsulfanylmethyl)-biphenyl-4-yl]-2-oxo-oxazolidin-5-(S)-ylmethyl}-acetamide], the MIC is 0.25 µg/mL (≈ 0.554 µM). For the compound `CC(=O)NC[C@H]1CN(c2ccc(-c3ccc(CSc4ccncc4)cc3)c(F)c2)C(=O)O1` [Compound 2019, N-{3-[2-Fluoro-4′-(pyridin-4-ylsulfanylmethyl)-biphenyl-4-yl]-2-oxo-oxazolidin-5-(S)-ylmethyl}-acetamide], the MIC was found to be 1 µg/mL (≈ 2.21 µM). For the compound `CC(=O)NC[C@H]1CN(c2ccc(-c3ccc(C[S+]([O-])c4nnnn4C)cc3)c(F)c2)C(=O)O1` (stereo partly drawn) [Compound 2020, N-{3-[2-Fluoro-4′-(1-methyl-1H-tetrazole-5-sulfinylmethyl)-biphenyl-4-yl]-2-oxo-oxazolidin-5-(S)-ylmethyl}-acetamide], the MIC was determined as 0.25 µg/mL (≈ 0.529 µM).

For the compound `CC(=O)NC[C@H]1CN(c2ccc(-c3ccc(C[S+]([O-])c4cnn[nH]4)cc3)c(F)c2)C(=O)O1` (stereo partly drawn) [Compound 2021, N-{3-[2-Fluoro-4′-(3H-[1,2,3]triazole-4-sulfinylmethyl)-biphenyl-4-yl]-2-oxo-oxazolidin-5-(S)-ylmethyl}-acetamide], the MIC worked out at 2 µg/mL (≈ 4.37 µM).

For the compound `CC(=O)NC[C@H]1CN(c2ccc(-c3ccc(C[S+]([O-])c4ccncc4)cc3)c(F)c2)C(=O)O1` (stereo partly drawn) [Compound 2022, N-{3-[2-Fluoro-4′-(pyridine-4-sulfinylmethyl)-biphenyl-4-yl]-2-oxo-oxazolidin-5-(S)-ylmethyl}-acetamide], the MIC was 2 µg/mL (≈ 4.28 µM). Turning to `CC(=O)NC[C@H]1CN(c2ccc(-c3ccc(C[S+]([O-])c4ccccn4)cc3)c(F)c2)C(=O)O1` (stereo partly drawn) [Compound 2023, N-{3-[2-Fluoro-4′-(pyridine-2-sulfinylmethyl)-biphenyl-4-yl]-2-oxo-oxazolidin-5-(S)-ylmethyl}-acetamide], the MIC came to 1 µg/mL (≈ 2.14 µM). `CC(=O)NC[C@H]1CN(c2ccc(-c3ccc(CS(=O)(=O)c4nnnn4C)cc3)c(F)c2)C(=O)O1` [Compound 2024, N-{3-[2-Fluoro-4′-(1-methyl-1H-tetrazole-5-sulfonylmethyl)-biphenyl-4-yl]-2-oxo-oxazolidin-5-(S)-ylmethyl}-acetamide]: the MIC was found to be 0.25 µg/mL (≈ 0.512 µM).

`CC(=O)NC[C@H]1CN(c2ccc(-c3ccc(CS(=O)(=O)c4cnn[nH]4)cc3)c(F)c2)C(=O)O1` [Compound 2025, N-{3-[2-Fluoro-4′-(3H-[1,2,3]triazole-4-sulfonylmethyl)-biphenyl-4-yl]-2-oxo-oxazolidin-5-(S)-ylmethyl}-acetamide]: the MIC came to 8 µg/mL (≈ 16.9 µM).

`CC(=O)NC[C@H]1CN(c2ccc(-c3ccc(CCSc4cnn[nH]4)cc3)c(F)c2)C(=O)O1` [Compound 2026, N-(3-{2-Fluoro-4′-[2-(3H-[1,2,3]triazol-4-ylsulfanyl)-ethyl]-biphenyl-4-yl}-2-oxo-oxazolidin-5-(S)-ylmethyl)-acetamide]: the MIC is 0.25 µg/mL (≈ 0.549 µM). The figure for `CC(=O)NC[C@H]1CN(c2ccc(-c3ccc(CSc4nnnn4CCN(C)C)cc3)c(F)c2)C(=O)O1` [Compound 2027, N-(3-{4′-[1-(2-Dimethylamino-ethyl)-1H-tetrazol-5-ylsulfanylmethyl]-2-fluoro-biphenyl-4-yl}-2-oxo-oxazolidin-5-(S)-ylmethyl)-acetamide] is 1 µg/mL (≈ 1.95 µM); for `CC(=O)NC[C@H]1CN(c2ccc(-c3ccc(CSc4nnc(N)[nH]4)cc3)c(F)c2)C(=O)O1` [Compound 2028, N-{3-[4′-(5-Amino-4H-[1,2,4]triazol-3-ylsulfanylmethyl)-2-fluoro-biphenyl-4-yl]-2-oxo-oxazolidin-5-(S)-ylmethyl}-acetamide] it is 0.25 µg/mL (≈ 0.548 µM); for `CC(=O)NC[C@H]1CN(c2ccc(-c3ccc(CSc4nncs4)cc3)c(F)c2)C(=O)O1` [Compound 2029, N-{3-[2-Fluoro-4′-([1,3,4]thiadiazol-2-ylsulfanylmethyl)-biphenyl-4-yl]-2-oxo-oxazolidin-5-(S)-ylmethyl}-acetamide] it is 0.25 µg/mL (≈ 0.545 µM). Take `CC(=O)NC[C@H]1CN(c2ccc(-c3ccc(CSc4nccs4)cc3)c(F)c2)C(=O)O1` [Compound 2030, N-{3-[2-Fluoro-4′-(thiazol-2-ylsulfanylmethyl)-biphenyl-4-yl]-2-oxo-oxazolidin-5-(S)-ylmethyl}-acetamide]: the MIC was determined as 1 µg/mL (≈ 2.19 µM).
